The text below walks through data of PMC6222871, “Suppression of Hepatitis C Virus Genome Replication and Particle Production by a Novel Diacylglycerol Acyltransferases Inhibitor” (Molecules : A Journal of Synthetic Chemistry and Natural …, 2018).

Data set [1] deals with HCV genotype 2a (Huh7.5-J6/JFH1). As to the kind of experiment: microbe, parasite or virus in culture. As to conditions: Hepatitis C virus, read-out: EC50 on HCV genome replication. From the text: We previously synthesized and characterized twelve DGAT inhibitors with a different DGAT specificity. […] A922500, a commercially available DGAT-1-specific inhibitor was used as a positive control. In spite of a wealth of knowledge on an essential role of DGAT-1 in the HCV particle assembly and production, less attention has been paid to potential functions of DGATs in other steps of the viral life cycle. Therefore, we decided to examine effects of these twelve DGAT inhibitors on HCV particle production as well as RNA genome replication in parallel. For this purpose, we transfected Huh7.5 cells with in vitro-transcribed genotype 2a HCV RNAs (Huh7.5-J6/JFH1) and treated them with each DGAT inhibitor for 6 and 72 h at 10 μM. HCV genome replication as well as host GAPDH RNA levels was quantitated by a real-time RT-PCR analysis. For assessment of HCV particle production, we harvested and filtered the supernatant from Huh7.5-J6/JFH1 cells treated with DGAT inhibitors and incubated the supernatant with naïve huh7.5 cells for 72 h. Then, infectivity was measured by a real-time RT-PCR analysis.
Quantitative real-time RT-PCR analysis to measure levels of HCV RNA and GAPDH was conducted as previously described. The cDNA synthesis and reverse transcription of miR-122 were performed by using Taqman quantitative RT-PCR (qRT-PCR) analysis. Taqmanq RT-PCR components including TaqMan miR122 probe, endogenous control U6 probe, TaqMan® MicroRNA reverse transcription Kit and TaqMan® universal master mix II were purchased from Thermo Fisher Scientific (Waltham, MA, USA)
Huh7.5-J6/JFH-1 cells were seeded into 6-well plates at a density of 3 × 10^5 cells per well with DMEM containing 10% FBS. After 24 h, they are incubated with either DMSO, increasing concentrations of 10j for 3, 6, 12, 24, 48, and 72 h, or increasing concentrations of A922500 for 6, 12, 24, 48, and 72 h. Total RNAs were extracted from treated cells and virus-containing media were harvested at each time point. Naïve Huh7.5 cells were infected with these virus-containing media after concentration with centricons. Total RNAs were extracted from Huh7.5 cells infected with virus-containing media. qRT-PCR analysis was performed to measure effect of 10j on HCV replication and virus particle production.

For data set [2] the test system is unchanged. As to the kind of experiment: HCV particle production: infectivity of supernatant on naive Huh7.5 cells by real-time RT-PCR. Type of data set: cell-based, hepatitis C virus. As to conditions: Hepatitis C virus, read-out: EC50 on HCV particle production.
Experimental: A922500, a commercially available DGAT-1-specific inhibitor was used as a positive control [10]. […] Therefore, we decided to examine effects of these twelve DGAT inhibitors on HCV particle production as well as RNA genome replication in parallel. For this purpose, we transfected Huh7.5 cells with in vitro-transcribed genotype 2a HCV RNAs (Huh7.5-J6/JFH1) [16] and treated them with each DGAT inhibitor for 6 and 72 h at 10 μM. HCV genome replication as well as host GAPDH RNA levels was quantitated by a real-time RT-PCR analysis. For assessment of HCV particle production, we harvested and filtered the supernatant from Huh7.5-J6/JFH1 cells treated with DGAT inhibitors and incubated the supernatant with naïve huh7.5 cells for 72 h. Then, infectivity was measured by a real-time RT-PCR analysis.
Huh7.5-J6/JFH-1 cells were seeded into 6-well plates at a density of 3 × 10^5 cells per well with DMEM containing 10% FBS. […] Total RNAs were extracted from treated cells and virus-containing media were harvested at each time point. Naïve Huh7.5 cells were infected with these virus-containing media after concentration with centricons.
Data set [3] relates to luciferase-linked genotype 2a HCV RNAs. In words: microbe, parasite or virus in culture. It counts as cell-based, hepatitis C virus. As to conditions: Hepatitis C virus, Huh7.5, luciferase-linked genotype 2a HCV RNA in Huh7.5 cells; read-out: EC50 (HCV replication). As for the experimental part: (§1) To order to study impacts of DGAT inhibitors on HCV genome replication independently of the particle production, we decided to examine effects of these twelve DGAT inhibitors on the levels of viral RNA genome and cell viability in parallel. […] Then, we treated them with an increasing concentration of each DGAT inhibitor. Then, luciferase and MTT-based cell viability assays were performed to determine EC50 and CC50 (cytotoxic concentration required to kill 50% of treated cells) values, respectively.
(§2) Cell viability was measured with EZ-CYTOX (10% tetrazolium salt; Dogen, Gyeonggi-do, Korea) as described previously. Anti-HCV replication analysis using a luciferase assay was conducted as previously described.

A short description of data set [4]: MTT-based cell viability assay (EZ-CYTOX). As to conditions: human. The procedure: as §1, §2
The subject of data set [5] is Huh7.5 cells. In words: TG quantification assay in Huh7.5 cells. Type of data set: cell-based. As to conditions: 20 μM. The procedure: Cells were washed with cold PBS, suspended, and homogenized in 1 mL of 5% NP-40/ddH2O solution. Then, homogenized cells were slowly heated to 90 °C for 5 min or until the NP-40 becomes cloudy, then cooled down to room temperature. Previous step was repeated to solubilize all TG. Cells were centrifuged for 2 min at top speed using a microcentrifuge to remove any insoluble material. Samples were diluted 10-fold with ddH2O before proceeding with the assay. […] Samples were added with 50 μL of reaction mix into each well and incubated at room temperature for 60 min while protected from light. Fluorescence was measured by using a fluorometric reader with Ex/Em = 535/590 nm. The amount of TG from standard sample was calculated using the following equation: Ts=Corrected absorbance−(y−intercept)/slope The amount of intracellular TG was calculated using the following equation: Concentration=Ts/Sv*D where the Ts is the amount of TG from standard curve and Sv is the volume of sample added to sample wells and D is the sample dilution factor.

The test system of data set [6] is Huh7.5 cells. In words: visualization of intracellular LD by BODIPY in Huh7.5 cells. It counts as cell-based. As to conditions: 20 μM, 72 h. The procedure:
Huh7.5 cells were incubated in a 24-well plate on top of coverslip in the presence of either DMSO, 8 μM of 10j, or 20 μM of A922500 for 72 h. Then, Huh7.5 cells were fixed by using 4% paraformaldehyde for 15 min and stained with 0.001% BODIPY 493/503 D3922 (Invitrogen, Carlsbad, CA, USA) for 10 min. The coverslips were mounted onto slides using Prolong Gold anti-fade reagent with DAPI (Invitrogen, Carlsbad, CA, USA) Fluorescence were examined and captured by Nikon confocal laser scanning microscopic system. LD content was quantified using the ImageJ program.

A further data set concerns JFH1-NS5A-GFP cells. As to the kind of experiment: NS5A-GFP and Oil Red O imaging in JFH1-NS5A-GFP cells. Type of data set: cell-based, hepatitis C virus. The procedure: Based on previous results, we noticed that EC50 values required for inhibition of the HCV genome replication by 10j were around 1–2 μM ranges (Figure 2 and Table 3). However, IC50 value required for inhibition of the enzymatic DGAT activities in vitro by 10j was reported to be higher than 5 μM (Table 2 and Figure 6E). Based on these observations, we hypothesized that inhibition of DGATs by 10j may not play a direct role in suppression of the viral genome replication. To test this hypothesis, we decided to study effects of 10j on DGAT and the viral genome replication in a simultaneous manner. […] Then, the viral NS3 protein and LDs were visualized by using an anti-NS3 antibody and BODIPY, respectively. […] Significant reduction of LD was only seen after treatment of 10j higher than 5 μM. In order to confirm this observation, we decided to utilize another HCV-positive cell—JFH1-NS5A-GFP cells—which were infected with infectious HCV genotype 2a particles with a visually tractable NS5A due to the presence of in-frame-fused GFP protein with NS5A. TGs of these cells were stained with ORO for visualization in parallel. […]
Immunofluorescence analysis of Huh7.5-J6/JFH1 or Huh7.5-JFH1-5A-GFP cells in the presence of 10j was conducted as previously described. Fluorescence were examined and captured by Nikon confocal laser scanning microscopic system. LD content was quantified using the ImageJ program.

Another data set relates to recombinant DGAT-1. Set-up: method as in PMID 23242135. As to conditions: recombinant DGAT-1, [14C] oleoyl-CoA as acyl-donor; cited from earlier work.
The test system of a further data set is HCV. Set-up: method as in PMID 27788579. As to conditions: read-out: EC50 in vitro; cited from earlier work.

Regarding `O=C(Nc1ccccc1)Nc1ccc(-c2ccc(C(=O)[C@@H]3CCC[C@H]3C(=O)O)cc2)cc1` [A922500, reference compound], the EC50 is greater than 100 µM in [1] (6 h); greater than 100 µM in data set [1] (12 h); greater than 100 µM in [1] (24 h); greater than 100 µM in data set [1] (48 h); greater than 100 µM in data set [1] (72 h); 34.3 µM in data set [2] (Huh7.5, 6 h). Besides, the EC50 in data set [2] (Huh7.5, 12 h) amounted to 76.6 µM; in data set [2] (Huh7.5, 24 h) it was 68.6 µM; in data set [2] (Huh7.5, 48 h), 42.2 µM; in data set [2] (Huh7.5, 72 h) it was 22 µM; in [3] it was 50.8 µM. The compound also showed a CC50 in data set [4] of 71.9 µM. Further, in the data set on Huh7.5 cells [5], the “suppression of endogenous level of TG” value is listed as 25%. Further, the “increase in the level of LDs (BODIPY)” value in the data set on Huh7.5 cells [6] turned out to be 45%. Also, the “abundance of GFP-tagged NS5A proteins or ORO-stained LDs” value in the data set on JFH1-NS5A-GFP cells is recorded as “failed to induce any significant changes”. For the same compound, the IC50 in the data set with recombinant DGAT-1 is 0.007 µM.

Take `O=C(O)C[C@H]1CC[C@H](c2ccc(-c3ccc(Nc4ccc(C(F)(F)F)nc4)cn3)cc2)CC1` [pradigastat]: the EC50 in the data set on HCV was 30 µM.

The EC50 is the midpoint of the concentration-response curve. Broadly, the CC50 is the concentration giving 50% cytotoxicity. Read a high CC50 as lower toxicity to the cells. The term IC50 denotes the concentration that gives 50% inhibition.
